Experiment [1] addresses T1, Lactobacillus pentosus NADH oxidase (Lp Nox), wild type, SEQ ID NO:1 (Lactiplantibacillus pentosus, UniProt A0A0U3FIG2).
T1 sequence (A0A0U3FIG2 1-450): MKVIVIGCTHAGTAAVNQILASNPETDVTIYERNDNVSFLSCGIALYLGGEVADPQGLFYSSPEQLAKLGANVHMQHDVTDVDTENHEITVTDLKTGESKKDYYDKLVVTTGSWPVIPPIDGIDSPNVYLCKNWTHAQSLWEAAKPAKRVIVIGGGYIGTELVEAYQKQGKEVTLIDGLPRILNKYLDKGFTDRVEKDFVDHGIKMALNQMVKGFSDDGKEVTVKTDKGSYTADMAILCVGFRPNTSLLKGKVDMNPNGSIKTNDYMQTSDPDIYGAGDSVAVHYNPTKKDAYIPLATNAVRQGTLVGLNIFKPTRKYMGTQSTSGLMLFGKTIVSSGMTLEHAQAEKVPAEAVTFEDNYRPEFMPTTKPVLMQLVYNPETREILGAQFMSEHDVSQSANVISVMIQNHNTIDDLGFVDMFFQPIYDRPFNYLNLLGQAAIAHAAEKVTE
The experiment can be described thus: Lp Nox enzymatic kinetics, cofactor oxidation at 340 nm, wild type. It is filed as biochemical. As to conditions: role: cofactor, 50 mM Tris-HCl pH 7.0, 37 °C. Here is the method:
(§1) Protein Expression and Purification. Lp Nox wild type or variants (see Table 1) are expressed with E. coli BL21 (DE3) with plasmids inoculated in 2× YT media with 200 mg L^−1 ampicillin. Expression was carried out by inoculation of 20 mL 2× YT media supplied with antibiotics and an overnight culture incubated at 30 °C, 250 RPM with an OD600nm of 0.072. Cells were grown at 37 °C in 50 mL conical tubes, and the cultures were induced with 0.5 mM IPTG at an OD600nm of 0.6-1.0. The 20 mL culture was then incubated at 27 °C and 250 RPM for 24 h. After 24 h, cells were harvested for protein extraction (centrifugation at 4 °C, 3000 RPM, 20 min). Cell pellets were resuspended in Zymo His-Binding buffer (Zymo Research Corporation) supplied with 0.15 mM FAD, 1 μL/mL DNase (Sigma Aldrich) and 1 mM InSolution [COMPOUND LEFT OUT] (Sigma Aldrich). The resuspended cell mixture was added to 0.5 mL of 0.1 mm glass beads (Biospec) and homogenized using a benchtop homogenizer (MP Biomedicals). Cell debris was separated from the crude extract by centrifugation at 4 °C and 15,000 RPM for 5 min. Protein purification was performed using His-Spin Protein Miniprep (Zymo Research Corporation) according to the manufacturer's instructions. The concentrations of purified protein were quantified by a Bradford assay using BSA as a standard. Purified protein was stored in aliquots with 20% (v/v) glycerol at −80 °C.
NMNH generation. NMNH generation was performed in 20 mL reaction volumes in a 50 ml conical tube containing 200 mM Tris-Cl at pH 8.0, 100 mM sodium chloride, 3 mM potassium chloride, 200 mM glucose, and 20 m MNMN^+. The reaction was initiating by spiking 500 ng of purified Bacillus subtilis glucose dehydrogenase I195R8. The reaction was incubated at 30 °C until reaction progression stopped, approximately 6 h. Reaction progression was monitored by observing the increase in light absorption at 340 nm, corresponding to the reduction of NMN^+ to NMNH. Then, the solution was filtered through a 15 kD cutoff filter to remove the protein. […] The elution step was repeated until no NMNH remained in the flow through, as monitored by light absorption at 340 nm. […]
Lp Nox Enzymatic Assays and Kinetic study with NMNH, NAD(P) H. The Lp Nox activity (see FIG. 4A) was determined by the change in light absorption at 340 nm at 37 °C in 50 mM Tris-Cl buffer pH 7.0. […] The absorbance change at 340 nm for NAD(P) H and NMNH was detected using a SpectraMax M3 microplate reader. […] Cofactor concentration over 2 mM could not be measured accurately on M3 spectrometer due to detector absorbance saturation at 340 nm.

For experiment [2], the target named is T2, Lactobacillus pentosus NADH oxidase (Lp Nox) variant LP-3 (I158S-D177W-G178E-V240L), SEQ ID NO:6 (Lactiplantibacillus pentosus, UniProt A0A0U3FIG2, D177W/G178E/I158S/V240L).
T2 construct: variant LP-3
T2 sequence (A0A0U3FIG2 1-450 I158S/D177W/G178E/V240L): T1 sequence (A0A0U3FIG2 1-450) with I158S, D177W, G178E, V240L
The experiment can be described thus: Lp Nox enzymatic kinetics, cofactor oxidation at 340 nm, variant LP-3. It is filed as biochemical. As to conditions: role: cofactor, 50 mM Tris-HCl pH 7.0, 37 °C. How it is done:
as §1
NMNH generation. NMNH generation was performed in 20 mL reaction volumes in a 50 ml conical tube containing 200 mM Tris-Cl at pH 8.0, 100 mM sodium chloride, 3 mM potassium chloride, 200 mM glucose, and 20 m MNMN^+. The reaction was initiating by spiking 500 ng of purified Bacillus subtilis glucose dehydrogenase I195R8. The reaction was incubated at 30 °C until reaction progression stopped, approximately 6 h. Reaction progression was monitored by observing the increase in light absorption at 340 nm, corresponding to the reduction of NMN^+ to NMNH. Then, the solution was filtered through a 15 kD cutoff filter to remove the protein. To purify the NMNH, the flowthrough was mixed with HPLC-grade acetonitrile to a final concentration of 70% acetonitrile, and the solution was passed through a Phenomenex Strata NH2 (2 g/12 mL, 55 μm, 70 Å) solid phase extraction column. The column was washed twice with 4 mL of 70:30 acetonitrile:water, then twice with 4 mL of 50:50 acetonitrile:water, twice with 4 mL of 30:70 acetonitrile:water, twice with 4 mL of nanopurified water, and finally twice with 4 mL of methanol. To elute the NMNH from the column, 2 mL of a solution containing 50:50 ammonium hydroxide:methanol was added to the column and incubated for 3 minutes before eluting. The elution step was repeated until no NMNH remained in the flow through, as monitored by light absorption at 340 nm. The elution fractions containing NMNH were pooled and aliquoted in 1 mL volumes into clean tubes. The solutions were dried over air and stored at −80 °C until use.
Lp Nox Enzymatic Assays and Kinetic study with NMNH, NAD(P) H. The Lp Nox activity (see FIG. 4A) was determined by the change in light absorption at 340 nm at 37 °C in 50 mM Tris-Cl buffer pH 7.0. The reactions were started by adding the purified protein to the prewarmed 37 °C assay mixture containing 0.3 mM of respective cofactor. The absorbance change at 340 nm for NAD(P) H and NMNH was detected using a SpectraMax M3 microplate reader. For kinetics parameter determination (see Table 2), cofactor concentrations were varied from 0 to 2 mM and the results were fitted to the standard Michaelis-Menten equation or Lineweaver-Burk equation to acquire catalytic efficiencies (kcat/Km) when the cofactor concentration tested could not saturate the enzyme activity or during the presence of substrate inhibition. Cofactor concentration over 2 mM could not be measured accurately on M3 spectrometer due to detector absorbance saturation at 340 nm.

[3] abbreviates: enzyme could not be saturated with the cofactor concentrations tested.

Each structure is given as a SMILES string. Residue numbers refer to the chain shown, from its start.

In the case of `NC(=O)C1=CN([C@@H]2O[C@H](COP(=O)(O)OP(=O)(O)OC[C@H]3O[C@@H](n4cnc5c(N)ncnc54)[C@H](OP(=O)(O)O)[C@@H]3O)[C@@H](O)[C@H]2O)C=CC1` [NADPH, nicotinamide adenine dinucleotide phosphate], in experiment [1] (apparent, cofactor 0 to 2 mM), the Km stood at 1900 ± 200 µM, the kcat turned out to be 18 ± 2 s⁻¹ and the kcat/Km worked out at 9300 ± 200 M⁻¹ s⁻¹. Moreover, in experiment [2] (apparent, cofactor 0 to 2 mM), the Km was determined as 1100 ± 100 µM, the kcat is 28 ± 1 s⁻¹ and the kcat/Km amounted to 26000 ± 1000 M⁻¹ s⁻¹.

`NC(=O)C1=CN([C@@H]2O[C@H](COP(=O)(O)O)[C@@H](O)[C@H]2O)C=CC1` [NMNH, nicotinamide mononucleotide]: the figures for the “kcat/Km (catalytic efficiency for NMNH)” value in experiment [1] (setting [3]) and in experiment [2] (setting [3]) were 2300 ± 100 M⁻¹ s⁻¹ and 10000 ± 1000 M⁻¹ s⁻¹, respectively.

These data come from US20260357222A1, “GROWTH-BASED SELECTION PLATFORM FOR NONCANONICAL COFACTOR OXIDIZING ENZYMES” (The Regents of the University of California, priority 2022, published 2026).
